Experimental data: US20190083521A1, “COMBINATION THERAPY FOR TREATING CANCER” (Epizyme, Inc., priority 2014, published 2019)
Where two headings read alike, the source gives them in different places.

Experiments:
[1] = test system: SKM-1 cells; assay: Example 6 combination screen: 300 nM EPZ-5676 pre-treatment, second compound 72 h, ATPLite, IC50 shift; assay type: cell-based, human; details: SKM-1 cells; 300 nM EPZ-5676 pre-treatment (4 + 3 days) vs DMSO, then 2nd compound 72 h; ATPLite; IC50 shift of 2nd compound
Method: (§1) Cells were then equilibrated in incubators for 24 hours before treatment with a second compound. Treated assay plates were incubated with a second compound for 72 hours. After this time, plates were developed for endpoint analysis using ATPLite to measure ATP content, which is used as an indicator of cell viability.
“N/D” means that IC50 of the second compound could not be determined for both conditions.

[2] = test system: MOLM-13 (MLL-AF9) cells; assay: Example 7 primary screen: 300 nM EPZ-5676 pre-treatment, second compound 72 h, ATPLite, GI100 shift; assay type: cell-based, human; details: MOLM-13 (MLL-AF9); 300 nM EPZ-5676 pre-treatment vs DMSO
Method: as §1, with “Cells were split using EPZ-5676 or DMSO containing growth media and further incubated for an additional 3-day pre-treatment time. Cells were finally seeded in growth media containing EPZ-5676 or DMSO in 384-well plates at 500 cell/well density. Cells” for “Cells”
(§2) “N/D” means the GI100 of the second compound could not be determined for both conditions and “-” means not tested.
(§3) Growth Inhibition (GI) as a measure of cell viability: The cell viability of vehicle was measured at the time of dosing the second agent (T0) and after seventy-two hours (T72). A GI reading of 0% represents no growth inhibition—cells treated with test compound as compared to T72 vehicle signals were measured. […] A GI 200% represents complete death of all cells in the culture well. Compounds reaching an activity plateau of GI 200% are considered cytotoxic. GI is calculated by applying the following test and equation: […]

[3] = test system: SKM-1 (non-MLLr) cells; assay: as above; assay type: cell-based, human; details: SKM-1 (non-MLLr); 300 nM EPZ-5676 pre-treatment vs DMSO
Method: as §1, with “Cells were split using EPZ-5676 or DMSO containing growth media and further incubated for an additional 3-day pre-treatment time. Cells were finally seeded in growth media containing EPZ-5676 or DMSO in 384-well plates at 500 cell/well density. Cells” for “Cells”
as §2, §3

[4] = test system: OCI-AML-4 (MLL-ENL) cells; assay: as above; assay type: cell-based; details: OCI-AML-4 (MLL-ENL); 300 nM EPZ-5676 pre-treatment vs DMSO
Method: as §1, with “Cells were split using EPZ-5676 or DMSO containing growth media and further incubated for an additional 3-day pre-treatment time. Cells were finally seeded in growth media containing EPZ-5676 or DMSO in 384-well plates at 500 cell/well density. Cells” for “Cells”
as §2, §3

[5] = test system: MOLM-13 (MLL-AF9) cells; assay: Example 7 retest: EPZ-5676 pre-treatment, second compound 72 h, Cell Titer Glo, growth inhibition; assay type: cell-based, human; design: GI100: unit not given here; details: for GI50: Homo sapiens; for Combination result with EPZ-5676, Retest: 150 nM EPZ-5676 pre-treatment vs DMSO
Method: (§4) Cells were then treated with a second compound for 72 hours. After this time, plates were developed for endpoint analysis using Cell Titer Glo to measure ATP content, which is used as an indicator of cell viability.
as §2
as §3, with “(T72).” for “(T72). A GI reading of 0% represents no growth inhibition—cells treated with test compound as compared to T72 vehicle signals were measured.”

[6] = test system: SKM-1 (non-MLLr) cells; assay: as above; assay type: cell-based, human; design: GI100: unit not given here; details: for Combination result with EPZ-5676, Retest: 300 nM EPZ-5676 pre-treatment vs DMSO
Method: as §4, §2
as §3, with “(T72).” for “(T72). A GI reading of 0% represents no growth inhibition—cells treated with test compound as compared to T72 vehicle signals were measured.”

[7] = test system: OCI-AML-4 (MLL-ENL) cells; assay: as above; assay type: cell-based; details: for Combination result with EPZ-5676, Retest / Result (combination with EPZ-5676) / GI50: OCI-AML-4 (MLL-ENL); for Combination result with EPZ-5676, Retest: 300 nM EPZ-5676 pre-treatment vs DMSO; for Result (combination with EPZ-5676) / GI50: NRAS Q61R (het); for GI50: second compound, 72 h
Method: as §4, §2
as §3, with “(T72).” for “(T72). A GI reading of 0% represents no growth inhibition—cells treated with test compound as compared to T72 vehicle signals were measured.”

[8] = test system: THP-1 (MLL-AF9) cells; assay: as above; assay type: cell-based; design: GI100: unit not given here; details: NRAS G12D
Method: as §4, with “Cells were split using EPZ-5676 or DMSO containing growth media and further incubated for an additional 3-day pre-treatment time. Cells were finally seeded in growth media containing EPZ-5676 or DMSO in 96-well plates. Cells” for “Cells”
as §2, §3

[9] = test system: ML-2 (MLL-AF6) cells; assay: as above; assay type: cell-based; design: GI100: unit not given here
Method: as §4, §2
as §3, with “(T72).” for “(T72). A GI reading of 0% represents no growth inhibition—cells treated with test compound as compared to T72 vehicle signals were measured.”

[10] = test system: RS4-11 (MLL-AF4) cells; assay: as above; assay type: cell-based; design: GI100: unit not given here; details: for GI50: Homo sapiens
Method: as §4, §2
as §3, with “(T72).” for “(T72). A GI reading of 0% represents no growth inhibition—cells treated with test compound as compared to T72 vehicle signals were measured.”

[11] = MOLM-13 (MLL-AF9), Ras mutation status: None known, second compound, 72 h
[12] = MOLM-13 (MLL-AF9), Ras mutation status: None known
[13] = SKM-1 (non-MLLr), KRAS K117N (homo)
[14] = SKM-1 (non-MLLr), KRAS K117N (homo), second compound, 72 h
[15] = ML-2 (MLL-AF6), KRAS A146T (het)
[16] = ML-2 (MLL-AF6), KRAS A146T (het), second compound, 72 h
[17] = RS4-11 (MLL-AF4), Ras mutation status: None known, second compound, 72 h

GI50 [5, 11]	GI50 [6, 14]	GI50 [7]	GI50 [8]	GI50 [10, 17]	SMILES	Combination result with EPZ-5676, Primary screen [2]	Combination result with EPZ-5676, Primary screen [3]	Combination result with EPZ-5676, Primary screen [4]	Combination result with EPZ-5676, Retest ([5]; MOLM-13 (MLL-AF9))	Result (combination with EPZ-5676) [5, 12]	Combination result with EPZ-5676, Retest ([6]; SKM-1 (non-MLLr))	Result (combination with EPZ-5676) [6, 13]	Combination result with EPZ-5676, Retest [7]	Result (combination with EPZ-5676) [7]	Result (combination with EPZ-5676) [9, 15]	GI50 [9, 16]	further results
210 nM	20 nM	70 nM	60 nM	7240 nM	O=C(Nc1ccc2[nH]nc(-c3ccncc3)c2c1)[C@@H]1CCN(CC(=O)N2CCN(c3ccc(-c4ncccn4)cc3)CC2)C1 [SCH772984]	Synergy (considered synergistic if the GI100 (Growth inhibition 100) value of the second compound decreased by 2-fold or more when EPZ-5676 was added as compared to the DMSO control)	Synergy (considered synergistic if the GI100 (Growth inhibition 100) value of the second compound decreased by 2-fold or more when EPZ-5676 was added as compared to the DMSO control)	Synergy (considered synergistic if the GI100 (Growth inhibition 100) value of the second compound decreased by 2-fold or more when EPZ-5676 was added as compared to the DMSO control)	Synergy (considered synergistic if the GI100 (Growth inhibition 100) value of the second compound decreased by 2-fold or more when EPZ-5676 was added as compared to the DMSO control)	Synergy (considered synergistic if the GI100 (Growth inhibition 100) value of the second compound decreased by 2-fold or more when EPZ-5676 was added as compared to the DMSO control)	Synergy (considered synergistic if the GI100 (Growth inhibition 100) value of the second compound decreased by 2-fold or more when EPZ-5676 was added as compared to the DMSO control)	Synergy (considered synergistic if the GI100 (Growth inhibition 100) value of the second compound decreased by 2-fold or more when EPZ-5676 was added as compared to the DMSO control)	Synergy (considered synergistic if the GI100 (Growth inhibition 100) value of the second compound decreased by 2-fold or more when EPZ-5676 was added as compared to the DMSO control)	Synergy (considered synergistic if the GI100 (Growth inhibition 100) value of the second compound decreased by 2-fold or more when EPZ-5676 was added as compared to the DMSO control)	Synergy (considered synergistic if the GI100 (Growth inhibition 100) value of the second compound decreased by 2-fold or more when EPZ-5676 was added as compared to the DMSO control)	40 nM	Summary of Combination Studies: SKM-1 [1]: Synergy (considered synergistic if the IC50 value of the second compound decreased by 2-fold or more when EPZ-5676 was added as compared to the DMSO control); GI100 [5, 11]: 0.53; GI100 [6, 14]: 0.086; GI100 [8]: >10; GI100 [9, 16]: 0.26; GI100 [10, 17]: >10
10 nM	1 nM	2 nM	2 nM	> 10000 nM	CC(=O)Nc1cccc(-n2c(=O)n(C3CC3)c(=O)c3c(Nc4ccc(I)cc4F)n(C)c(=O)c(C)c32)c1 [Trametinib]	Synergy (considered synergistic if the GI100 (Growth inhibition 100) value of the second compound decreased by 2-fold or more when EPZ-5676 was added as compared to the DMSO control)	Synergy (considered synergistic if the GI100 (Growth inhibition 100) value of the second compound decreased by 2-fold or more when EPZ-5676 was added as compared to the DMSO control)	Synergy (considered synergistic if the GI100 (Growth inhibition 100) value of the second compound decreased by 2-fold or more when EPZ-5676 was added as compared to the DMSO control)	Synergy (considered synergistic if the GI100 (Growth inhibition 100) value of the second compound decreased by 2-fold or more when EPZ-5676 was added as compared to the DMSO control)	Synergy (considered synergistic if the GI100 (Growth inhibition 100) value of the second compound decreased by 2-fold or more when EPZ-5676 was added as compared to the DMSO control)	Synergy (considered synergistic if the GI100 (Growth inhibition 100) value of the second compound decreased by 2-fold or more when EPZ-5676 was added as compared to the DMSO control)	Synergy (considered synergistic if the GI100 (Growth inhibition 100) value of the second compound decreased by 2-fold or more when EPZ-5676 was added as compared to the DMSO control)	Synergy (considered synergistic if the GI100 (Growth inhibition 100) value of the second compound decreased by 2-fold or more when EPZ-5676 was added as compared to the DMSO control)	Synergy (considered synergistic if the GI100 (Growth inhibition 100) value of the second compound decreased by 2-fold or more when EPZ-5676 was added as compared to the DMSO control)	Synergy (considered synergistic if the GI100 (Growth inhibition 100) value of the second compound decreased by 2-fold or more when EPZ-5676 was added as compared to the DMSO control)	1 nM	GI100 [5]: 0.03; GI100 [6]: 0.004; GI100 [7]: 0.009; GI100 [9]: 0.001; GI100 [10]: >10
